Values quoted from earlier work, collected in patent US6514544B2, “Beverage for increasing the body's capacity to break down alcohol and method thereof” (JHS-Privatstiftung, priority 1998, dated 2003).

- share of the reabsorbed alcohol excreted via the kidneys (approximately): 1-2%
- share of the reabsorbed alcohol excreted via the lungs (approximately): 2-3%
- amount directly glucuronated (slight amounts): 0.5%
Compound: CCO [alcohol, ethanol]
